Measurements reported in ChEMBL document CHEMBL4393664, “2,4-Disubstituted quinazolines targeting breast cancer cells via EGFR-PI3K” (Eur J Med Chem, 2019).
Activity calls are given as the source filed them. No cut-off for these calls is given here.

Tests used:
MCF7 [1] = assay: Induction of apoptosis in human MCF7 cells assessed as downregulation of Bcl-2 protein expression at 3 to 12 uM after 48 hrs by Western blot analysis; format: functional, cell-based
[2] = biological target: Epidermal growth factor receptor (Homo sapiens) (UniProt P00533); assay: Inhibition of EGFR phosphorylation at Y1068 residues in human MDA-MB-231 cells after 8 hrs by Western blot analysis; format: cell-based
MDA-MB-231 [3] = assay: Cell cycle arrest in human MDA-MB-231 cells assessed as accumulation at G1 phase at 12 uM after 24 hrs by propidium iodide/RNase A staining-based flow cytometric analysis (reference value: 49.17%); format: functional
MDA-MB-231 [4] = assay: Effect on total EGFR protein level in human MDA-MB-231 cells up to 12 uM after 8 hrs by Western blot analysis; format: ADME, cell-based; details: mda-mb-231, 8 h
MDA-MB-231 [5] = assay: Induction of apoptosis in human MDA-MB-231 cells assessed as late apoptotic cells at 4 uM after 48 hrs by Annexin-V-FITC/propidium iodide staining based flow cytometry (reference value: 2.38%); format: functional
MDA-MB-231 [6] = assay: Cell cycle arrest in human MDA-MB-231 cells assessed as accumulation at S phase at 6 uM after 24 hrs by propidium iodide/RNase A staining-based flow cytometric analysis (reference value: 23.07%); format: functional
MDA-MB-231 [7] = assay: Induction of apoptosis in human MDA-MB-231 cells assessed as early apoptotic cells at 4 uM after 48 hrs by Annexin-V-FITC/propidium iodide staining based flow cytometry (reference value: 4.33%); format: functional
MDA-MB-231 [8] = assay: Induction of apoptosis in human MDA-MB-231 cells assessed as necrotic cells at 4 uM after 48 hrs by Annexin-V-FITC/propidium iodide staining based flow cytometry (reference value: 1.21%); format: functional
MCF7 [9] = assay: Cell cycle arrest in human MCF7 cells assessed as accumulation at G1 phase at 6 uM after 24 hrs by propidium iodide/RNase A staining-based flow cytometric analysis (reference value: 52.21%); format: functional
[10] = biological target: Epidermal growth factor receptor (Homo sapiens) (UniProt P00533); assay: Inhibition of EGFR phosphorylation at Y992 residues in human MCF7 cells after 8 hrs by Western blot analysis; format: cell-based
MCF7 [11] = assay: Cell cycle arrest in human MCF7 cells assessed as accumulation at S phase at 6 uM after 24 hrs by propidium iodide/RNase A staining-based flow cytometric analysis (reference value: 17.17%); format: functional
MCF7 [12] = assay: Induction of apoptosis in human MCF7 cells assessed as late apoptotic cells at 6 uM after 48 hrs by Annexin-V-FITC/propidium iodide staining based flow cytometry (reference value: 4.28%); format: functional
MDA-MB-231 [13] = assay: Induction of apoptosis in human MDA-MB-231 cells assessed as viable cells at 4 uM after 48 hrs by Annexin-V-FITC/propidium iodide staining based flow cytometry (reference value: 92.1%); format: functional; details: MDA-MB-231, 48 h, read-out: Activity
MDA-MB-231 [14] = assay: Induction of apoptosis in human MDA-MB-231 cells assessed as increase in ROS generation up to 8 uM after 48 hrs by DHE dye-based fluorescence microscopic analysis; format: functional, cell-based
MCF7 [15] = assay: Induction of apoptosis in human MCF7 cells assessed as increase in ROS generation up to 8 uM after 48 hrs by DHE dye-based fluorescence microscopic analysis; format: functional, cell-based
MDA-MB-231 [16] = assay: Inhibition of colony formation in human MDA-MB-231 cells at 9 uM after 7 days by crystal violet staining based microscopic analysis; format: functional, cell-based
MCF7 [17] = assay: Cytotoxicity against human MCF7 cells assessed as reduction in cell viability after 72 hrs by MTT assay; format: functional, cell-based; details: MCF7, 72 h
MDA-MB-231 [18] = assay: Cell cycle arrest in human MDA-MB-231 cells assessed as accumulation at S phase at 3 uM after 24 hrs by propidium iodide/RNase A staining-based flow cytometric analysis (reference value: 23.07%); format: functional
[19] = biological target: Epidermal growth factor receptor (Homo sapiens) (UniProt P00533); assay: Inhibition of EGFR in human MCF7 cells assessed as reduction in phosphorylated PI3K expression after 8 hrs by Western blot analysis; format: cell-based
MDA-MB-231 [20] = assay: Cytotoxicity against human MDA-MB-231 cells assessed as reduction in cell viability after 72 hrs by MTT assay; format: functional, cell-based; details: MDA-MB-231, 72 h
MDA-MB-231 [21] = assay: Induction of apoptosis in human MDA-MB-231 cells assessed as late apoptotic cells at 6 uM after 48 hrs by Annexin-V-FITC/propidium iodide staining based flow cytometry (reference value: 2.38%); format: functional
MDA-MB-231 [22] = assay: Antiproliferative activity against human MDA-MB-231 cells assessed as reduction in cell viability up to 32 uM by MTT assay; format: functional, cell-based; details: TDE = time-dependent effect
MCF7 [23] = assay: Induction of apoptosis in human MCF7 cells assessed as viable cells at 2 uM after 48 hrs by Annexin-V-FITC/propidium iodide staining based flow cytometry (reference value: 91.1%); format: functional; details: MCF7, 48 h, read-out: Activity
MCF7 [24] = assay: Induction of apoptosis in human MCF7 cells assessed as viable cells at 4 uM after 48 hrs by Annexin-V-FITC/propidium iodide staining based flow cytometry (reference value: 91.1%); format: functional; details: MCF7, 48 h, read-out: Activity
[25] = biological target: Epidermal growth factor receptor (Homo sapiens) (UniProt P00533); assay: Inhibition of EGFR in human MDA-MB-231 cells assessed as reduction in phosphorylated PI3K expression after 8 hrs by Western blot analysis; format: cell-based
MCF7 [26] = assay: Induction of apoptosis in human MCF7 cells assessed as necrotic cells at 4 uM after 48 hrs by Annexin-V-FITC/propidium iodide staining based flow cytometry (reference value: 1.57%); format: functional
MCF7 [27] = assay: Cell cycle arrest in human MCF7 cells assessed as accumulation at S phase at 12 uM after 24 hrs by propidium iodide/RNase A staining-based flow cytometric analysis (reference value: 17.17%); format: functional
MDA-MB-231 [28] = assay: Induction of apoptosis in human MDA-MB-231 cells assessed as viable cells at 2 uM after 48 hrs by Annexin-V-FITC/propidium iodide staining based flow cytometry (reference value: 92.1%); format: functional; details: MDA-MB-231, 48 h, read-out: Activity
MDA-MB-231 [29] = assay: Cell cycle arrest in human MDA-MB-231 cells assessed as accumulation at G1 phase at 6 uM after 24 hrs by propidium iodide/RNase A staining-based flow cytometric analysis (reference value: 49.17%); format: functional
MCF7 [30] = assay: Induction of apoptosis in human MCF7 cells assessed as necrotic cells at 6 uM after 48 hrs by Annexin-V-FITC/propidium iodide staining based flow cytometry (reference value: 1.57%); format: functional
MDA-MB-231 [31] = assay: Induction of apoptosis in human MDA-MB-231 cells assessed as necrotic cells at 2 uM after 48 hrs by Annexin-V-FITC/propidium iodide staining based flow cytometry (reference value: 1.21%); format: functional
MDA-MB-231 [32] = assay: Induction of apoptosis in human MDA-MB-231 cells assessed as viable cells at 6 uM after 48 hrs by Annexin-V-FITC/propidium iodide staining based flow cytometry (reference value: 92.1%); format: functional; details: MDA-MB-231, 48 h, read-out: Activity
MCF7 [33] = assay: Cell cycle arrest in human MCF7 cells assessed as accumulation at G1 phase at 12 uM after 24 hrs by propidium iodide/RNase A staining-based flow cytometric analysis (reference value: 52.21%); format: functional
MDA-MB-231 [34] = assay: Induction of apoptosis in human MDA-MB-231 cells assessed as necrotic cells at 6 uM after 48 hrs by Annexin-V-FITC/propidium iodide staining based flow cytometry (reference value: 1.21%); format: functional
MCF7 [35] = assay: Induction of apoptosis in human MCF7 cells assessed as early apoptotic cells at 4 uM after 48 hrs by Annexin-V-FITC/propidium iodide staining based flow cytometry (reference value: 3.05%); format: functional

Chain of Epidermal growth factor receptor (Homo sapiens) (P00533 whole entry): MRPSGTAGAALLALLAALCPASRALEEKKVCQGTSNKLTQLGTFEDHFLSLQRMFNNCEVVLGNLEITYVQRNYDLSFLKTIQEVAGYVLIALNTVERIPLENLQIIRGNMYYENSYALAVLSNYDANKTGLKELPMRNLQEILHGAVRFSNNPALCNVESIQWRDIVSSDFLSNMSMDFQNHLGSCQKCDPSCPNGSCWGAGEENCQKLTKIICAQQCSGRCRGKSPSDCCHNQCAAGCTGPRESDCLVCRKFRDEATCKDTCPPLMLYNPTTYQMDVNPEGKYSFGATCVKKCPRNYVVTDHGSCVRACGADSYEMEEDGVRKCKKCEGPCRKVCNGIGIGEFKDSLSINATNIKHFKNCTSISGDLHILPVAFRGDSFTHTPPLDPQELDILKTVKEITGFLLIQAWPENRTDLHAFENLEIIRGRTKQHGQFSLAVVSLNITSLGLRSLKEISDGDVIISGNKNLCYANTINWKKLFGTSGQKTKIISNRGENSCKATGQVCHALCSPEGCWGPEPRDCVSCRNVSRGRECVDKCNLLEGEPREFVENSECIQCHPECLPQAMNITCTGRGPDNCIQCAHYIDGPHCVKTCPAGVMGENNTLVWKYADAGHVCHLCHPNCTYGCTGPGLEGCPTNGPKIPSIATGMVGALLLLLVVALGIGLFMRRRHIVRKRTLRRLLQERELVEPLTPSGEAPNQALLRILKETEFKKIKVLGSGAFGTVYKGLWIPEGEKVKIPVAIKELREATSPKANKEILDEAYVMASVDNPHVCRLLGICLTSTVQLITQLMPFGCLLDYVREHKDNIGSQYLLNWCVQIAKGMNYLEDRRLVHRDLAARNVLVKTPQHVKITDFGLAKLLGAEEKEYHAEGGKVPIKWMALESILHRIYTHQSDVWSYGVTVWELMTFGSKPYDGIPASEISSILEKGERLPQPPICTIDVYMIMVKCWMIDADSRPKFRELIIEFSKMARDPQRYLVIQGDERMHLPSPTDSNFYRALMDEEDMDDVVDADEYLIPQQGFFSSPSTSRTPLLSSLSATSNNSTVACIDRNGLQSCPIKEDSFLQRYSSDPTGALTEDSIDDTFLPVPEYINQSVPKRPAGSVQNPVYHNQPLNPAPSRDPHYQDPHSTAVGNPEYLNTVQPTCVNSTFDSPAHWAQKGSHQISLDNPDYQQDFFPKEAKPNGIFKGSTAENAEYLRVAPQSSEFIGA

Compound: FC(F)(F)c1ccc(CSc2nc(Nc3ccc(C(F)(F)F)cc3)c3ccccc3n2)cc1
- Activity (MCF7 [1]): Active
- inhibition [2]: Dose-dependent effect
- Activity (MDA-MB-231 [3]): 69.54%
- Activity (MDA-MB-231 [4]): Non-Toxic
- Activity (MDA-MB-231 [5]): 15.3%
- Activity (MDA-MB-231 [6]): 17.32%
- Activity (MDA-MB-231 [7]): 10.6%
- Activity (MDA-MB-231 [8]): 3.06%
- Activity (MCF7 [9]): 65.05%
- inhibition [10]: Dose-dependent effect
- Activity (MCF7 [11]): 19.52%
- Activity (MCF7 [12]): 10.6%
- viability at 4 µM (MDA-MB-231 [13]): 71.1%
- Activity (MDA-MB-231 [14]): Active
- Activity (MCF7 [15]): Active
- growth inhibition (GI) (MDA-MB-231 [16]): Active
- IC50 (MCF7 [17]): 5.1 µM
- Activity (MDA-MB-231 [18]): 18.96%
- inhibition [19]: Dose-dependent effect
- IC50 (MDA-MB-231 [20]): 5.46 µM
- Activity (MDA-MB-231 [21]): 20.7%
- Activity (MDA-MB-231 [22]): Tde
- viability at 2 µM (MCF7 [23]): 81.1%
- viability at 4 µM (MCF7 [24]): 76.2%
- inhibition [25]: Dose-dependent effect
- Activity (MCF7 [26]): 1.28%
- Activity (MCF7 [27]): 10.65%
- viability at 2 µM (MDA-MB-231 [28]): 82.9%
- Activity (MDA-MB-231 [29]): 60.7%
- Activity (MCF7 [30]): 1.8%
- Activity (MDA-MB-231 [31]): 2.6%
- viability at 6 µM (MDA-MB-231 [32]): 66.5%
- Activity (MCF7 [33]): 75.03%
- Activity (MDA-MB-231 [34]): 2.49%
- Activity (MCF7 [35]): 15%
